In US7417156B2, “Orally active, antimalarial, anticancer, artemisinin-derived trioxane dimers” (Johns Hopkins University, priority 2002, dated 2008):

Assays:
[1] = test system: T-47D; test: NCI 60 cell line panel screen (SRB); assay type: cell-based, human
[2] = test system: HS 578T; test: NCI 60 cell line panel screen (SRB); assay type: cell-based, human
[3] = test system: KM12; test: NCI 60 cell line panel screen (SRB); assay type: cell-based, human
[4] = test system: NCI-H23; test: NCI 60 cell line panel screen (SRB); assay type: cell-based, human
[5] = test system: NCI-H322M; assay type: cell-based
[6] = test system: NCI-H522; test: NCI 60 cell line panel screen (SRB); assay type: cell-based, human
[7] = test system: 786-0; test: NCI 60 cell line panel screen (SRB); assay type: cell-based, human
[8] = test system: ACHN; test: NCI 60 cell line panel screen (SRB); assay type: cell-based, human
[9] = test system: IGROVI; test: NCI 60 cell line panel screen (SRB); assay type: cell-based, human
[10] = test system: HOP-92; test: NCI 60 cell line panel screen (SRB); assay type: cell-based, human
[11] = test system: MCF7; test: NCI 60 cell line panel screen (SRB); assay type: cell-based, human
[12] = test system: TK-10; test: NCI 60 cell line panel screen (SRB); assay type: cell-based, human
[13] = test system: OVCAR-5; test: NCI 60 cell line panel screen (SRB); assay type: cell-based, human
[14] = test system: HT29; test: NCI 60 cell line panel screen (SRB); assay type: cell-based, human
[15] = test system: SF-268; test: NCI 60 cell line panel screen (SRB); assay type: cell-based, human
[16] = test system: HCT-15; test: NCI 60 cell line panel screen (SRB); assay type: cell-based, human
[17] = test system: NCI/ADR-RES; test: NCI 60 cell line panel screen (SRB); assay type: cell-based, human
[18] = test system: U251; test: NCI 60 cell line panel screen (SRB); assay type: cell-based, human
[19] = test system: BT-549; test: NCI 60 cell line panel screen (SRB); assay type: cell-based, human
[20] = test system: COLO 205; test: NCI 60 cell line panel screen (SRB); assay type: cell-based, human
[21] = test system: CCRF-CEM; test: NCI 60 cell line panel screen (SRB); assay type: cell-based, human
[22] = test system: UACC-257; test: NCI 60 cell line panel screen (SRB); assay type: cell-based, human
[23] = test system: MDA-MB231/ATCC; test: NCI 60 cell line panel screen (SRB); assay type: cell-based, human
[24] = test system: M14; test: NCI 60 cell line panel screen (SRB); assay type: cell-based, human
[25] = test system: SK-MEL-28; test: NCI 60 cell line panel screen (SRB); assay type: cell-based, human
[26] = test system: RPMI-8226; test: NCI 60 cell line panel screen (SRB); assay type: cell-based, human; details: RPMI-8226 (Leukemia)
[27] = test system: A549/ATCC; test: NCI 60 cell line panel screen (SRB); assay type: cell-based, human
[28] = test system: HL-60(TB); test: NCI 60 cell line panel screen (SRB); assay type: cell-based, human

`CC1CCC2C(C)C(CC(O)(CO)CC3OC4OC5(C)CCC6C(C)CCC(C3C)C46OO5)OC3OC4(C)CCC1C32OO4` (stereo not drawn) [Compound 5, bis-trioxane vicinal diol] was tested, and the Log10GI50 ([1]; Breast Cancer, T-47D) was −7.23, the Log10LC50 ([1]; T-47D (Breast Cancer), LC50: PG=−50) was >−4.00 log10M and the Log10TGI50 ([1]; T-47D (Breast Cancer), TGI: PG=0) was −4.48 log10M. For the same compound, the Log10GI50 ([2]; Breast Cancer, HS 578T) was −4.72, the Log10LC50 ([2]; HS 578T (Breast Cancer), LC50: PG=−50) was >−4.00 log10M and the Log10TGI50 ([2]; HS 578T (Breast Cancer), TGI: PG=0) was −4.08 log10M. The Log10GI50 ([3]; Colon Cancer, KM12) was <−8.00, the Log10LC50 ([3]; KM12 (Colon Cancer), LC50: PG=−50) was >−4.00 log10M and the Log10TGI50 ([3]; KM12 (Colon Cancer), TGI: PG=0) was −4.47 log10M. For the same compound, the Log10LC50 ([4]; NCI-H23 (Non-Small Cell Lung Cancer), LC50: PG=−50) was >−4.00 log10M, the Log10TGI50 ([4]; NCI-H23 (Non-Small Cell Lung Cancer), TGI: PG=0) was −4.26 log10M and the Log10GI50 ([4]; Non-Small Cell Lung Cancer, NCI-H23) was −4.83. It also gave a Log10LC50 ([5]; NCI-H322M (Non-Small Cell Lung Cancer), LC50: PG=−50) of −4.16 log10M, a Log10TGI50 ([5]; NCI-H322M (Non-Small Cell Lung Cancer), TGI: PG=0) of −4.44 log10M and a Log10GI50 ([5]; Non-Small Cell Lung Cancer, NCI-H322M) of −4.71. It also gave a Log10TGI50 ([6]; NCI-H522 (Non-Small Cell Lung Cancer), TGI: PG=0) of −4.59 log10M, a Log10LC50 ([6]; NCI-H-522 (Non-Small Cell Lung Cancer), LC50: PG=−50) of −4.17 log10M and a Log10GI50 ([6]; Non-Small Cell Lung Cancer, NCI-H522) of −7.33. The Log10LC50 ([7]; 786-0 (Renal Cancer), LC50: PG=−50) was >−4.00 log10M, the Log10TGI50 ([7]; 786-0 (Renal Cancer), TGI: PG=0) was −4.36 log10M and the Log10GI50 ([7]; Renal Cancer, 786-0) was −4.87. The Log10LC50 ([8]; ACHN (Renal Cancer), LC50: PG=−50) was 4.47 log10M, the Log10TGI50 ([8]; ACHN (Renal Cancer), TGI: PG=0) was <−8.00 log10M and the Log10GI50 ([8]; Renal Cancer, ACHN) was <−8.00. For the same compound, the Log10LC50 ([9]; IGROVI (Ovarian Cancer), LC50: PG=−50) was −4.17 log10M, the Log10TGI50 ([9]; IGROVI (Ovarian Cancer), TGI: PG=0) was −4.57 log10M and the Log10GI50 ([9]; Ovarian Cancer, IGROVI) was −4.97. It also gave a Log10LC50 ([10]; HOP-92 (Non-Small Cell Lung Cancer), LC50: PG=−50) of −4.05 log10M, a Log10TGI50 ([10]; HOP-92 (Non-Small Cell Lung Cancer), TGI: PG=0) of −4.49 log10M and a Log10GI50 ([10]; Non-Small Cell Lung Cancer, HOP-92) of −4.93. The Log10GI50 ([11]; Breast Cancer, MCF7) was <−8.00, the Log10LC50 ([11]; MCF7 (Breast Cancer), LC50: PG=−50) was −4.22 log10M and the Log10TGI50 ([11]; MCF7 (Breast Cancer), TGI: PG=0) was −4.88 log10M. It also gave a Log10GI50 ([12]; Renal Cancer, TK-10) of −4.91, a Log10LC50 ([12]; TK-10 (Renal Cancer), LC50: PG=−50) of −4.06 log10M and a Log10TGI50 ([12]; TK-10 (Renal Cancer), TGI: PG=0) of −4.49 log10M. The Log10LC50 ([13]; OVCAR-5 (Ovarian Cancer), LC50: PG=−50) was >−4.00 log10M, the Log10TGI50 ([13]; OVCAR-5 (Ovarian Cancer), TGI: PG=0) was −4.33 log10M and the Log10GI50 ([13]; Ovarian Cancer, OVCAR-5) was −4.78. For the same compound, the Log10GI50 ([14]; Colon Cancer, HT29) was <−8.00, the Log10LC50 ([14]; HT29 (Colon Cancer), LC50: PG=−50) was >−4.00 log10M and the Log10TGI50 ([14]; HT29 (Colon Cancer), TGI: PG=0) was >−4.00 log10M. It also gave a Log10GI50 ([15]; CNS Cancer, SF-268) of −4.94, a Log10LC50 ([15]; SF-268 (CNS Cancer), LC50: PG=−50) of −4.12 log10M and a Log10TGI50 ([15]; SF-268 (CNS Cancer), TGI: PG=0) of −4.53 log10M. It also gave a Log10GI50 ([16]; Colon Cancer, HCT-15) of −5.28, a Log10LC50 ([16]; HCT-15 (Colon Cancer), LC50: PG=−50) of −4.03 log10M and a Log10TGI50 ([16]; HCT-15 (Colon Cancer), TGI: PG=0) of −4.53 log10M. For the same compound, the Log10GI50 ([17]; Breast Cancer, NCI/ADR-RES) was −4.75, the Log10LC50 ([17]; NCI/ADR-RES (Breast Cancer), LC50: PG=−50) was >−4.00 log10M and the Log10GI50 ([18]; CNS Cancer, U251) was −7.68. For the same compound, the Log10LC50 ([18]; U251 (CNS Cancer), LC50: PG=−50) was −4.08 log10M, the Log10TGI50 ([18]; U251 (CNS Cancer), TGI: PG=0) was −4.61 log10M and the Log10LC50 ([19]; BT-549 (Breast Cancer), LC50: PG=−50) was −4.30 log10M. For the same compound, the Log10TGI50 ([19]; BT-549 (Breast Cancer), TGI: PG=0) was −4.81 log10M, the Log10GI50 ([19]; Breast Cancer, BT-549) was <−8.00 and the Log10LC50 ([20]; COLO 205 (Colon Cancer), LC50: PG=−50) was −4.15 log10M. The Log10TGI50 ([20]; COLO 205 (Colon Cancer), TGI: PG=0) was −4.87 log10M, the Log10GI50 ([20]; Colon Cancer, COLO 205) was <−8.00 and the Log10LC50 ([21]; CCRF-CEM (Leukemia), LC50: PG=−50) was >−4.00 log10M. The Log10TGI50 ([21]; CCRF-CEM (Leukemia), TGI: PG=0) was >−4.00 log10M, the Log10GI50 ([21]; Leukemia, CCRF-CEM) was −4.71 and the Log10GI50 ([22]; Melanoma, UACC-257) was <−8.00. It also gave a Log10LC50 ([22]; UACC-257 (Melanoma), LC50: PG=−50) of −4.36 log10M, a Log10TGI50 ([22]; UACC-257 (Melanoma), TGI: PG=0) of −4.90 log10M and a Log10GI50 ([23]; Breast Cancer, MDA-MB231/ATCC) of −4.99. The Log10LC50 ([23]; MDA-MB231/ATCC (Breast Cancer), LC50: PG=−50) was −4.15 log10M, the Log10TGI50 ([23]; MDA-MB231/ATCC (Breast Cancer), TGI: PG=0) was −4.57 log10M and the Log10LC50 ([24]; M14 (Melanoma), LC50: PG=−50) was >−4.00 log10M. The Log10TGI50 ([24]; M-14 (Melanoma), TGI: PG=0) was >−4.00 log10M, the Log10GI50 ([24]; Melanoma, M14) was −4.59 and the Log10GI50 ([25]; Melanoma, SK-MEL-28) was −4.79. The Log10LC50 ([25]; SK-MEL-28 (Melanoma), LC50: PG=−50) was >−4.00 log10M, the Log10TGI50 ([25]; SK-MEL-28 (Melanoma), TGI: PG=0) was −4.31 log10M and the Log10LC50 ([26]; LC50: PG=−50) was >−4.00 log10M. The Log10TGI50 ([26]; TGI: PG=0) was >−4.00 log10M, the Log10LC50 ([27]; A549/ATCC (Non-Small Cell Lung Cancer), LC50: PG=−50) was −4.11 log10M and the Log10TGI50 ([27]; A549/ATCC (Non-Small Cell Lung Cancer), TGI: PG=0) was −4.82 log10M. The Log10GI50 ([27]; Non-Small Cell Lung Cancer, A549/ATCC) was −7.59, the Log10LC50 ([28]; HL-60(TB) (Leukemia), LC50: PG=−50) was >−4.00 log10M and the Log10GI50 ([28]; Leukemia, HL-60(TB)) was <−8.00.
